Legend:
LC noradrenergic neurons = assay: Lesion of the locus coeruleus with DSP4 in H6 mice; type: in vivo; conditions: DSP4 5 mg per kg i.p. every two weeks, H6 mice from age 3-4 months, sacrificed at 9 months
Description: Hemizygous male H6 mice (aged 3 to 4 months) were injected with vehicle or with DSP4 (5 mg per kg; i.p., every two weeks) and all mice were sacrificed at age 9 months. This protocol (a low, chronic dose) results in 70% loss of LC noradrenergic neurons. Brains were dissected, the left hemispheres were fast frozen in isopentane at −30° C. and stored at −80° C. for subsequent protein and RNA studies. The right hemispheres were processed for immunohistochemistry.
A chronic treatment paradigm was chosen using a relatively low dose (5 mg/kg) which may better reproduce the slow onset of NA dysfunction that is seen with aging in humans, and a gradual rather than abrupt loss of LC neurons.

APP = assay: Western blot of APP holo-protein and C-terminal fragments in brain extracts; type: in vivo, mice; conditions: cortical lysates, versus vehicle
Description: Brain tissue was homogenized in 8M urea. Total protein concentration was determined using the Bradford assay and BSA as standard. Proteins were separated on 8 or 15% SDS page gels, transferred to PVDF membrane and incubated with antibodies: anti-APP^645-694 G369 (1:4000), anti α-tubulin (T-9026, Sigma) (1:5000). Signals were detected using the ECL Kit (Amersham), band intensities calculated using Image J software (ImageJ 1.31V), and normalized to α-tubulin values.

astrocyte marker GFAP = assay: Glial activation: GFAP staining of brain sections; type: in vivo, mice
Description: The effects of DSP4 treatment on glial activation were assessed in hippocampus and frontal cortex by staining for microglial marker Mac1 and astrocyte marker GFAP (FIG. 3). Sections from vehicle and DSP4 treated H6 mice brains were stained with antibodies directed against Mac1 to assess microglial activation (FIG. 3A-C); and GFAP to assess astrocyte activation (FIG. 3D-F). […] FIGS. 3G-3I show quantitative analysis of Mac1 (FIG. 3G-3H) and GFAP staining (FIG. 31).
Hemibrains were fixed overnight in 4% paraformaldehyde in 0.1M phosphate buffer, then overnight in 10% sucrose in 0.1M phosphate buffer, and then frozen in isopentane at −30° C. Serial sections (35 um thick) were prepared on a cryostat, and stored in cryoprotective solution (0.1M phosphate buffer: ethyleneglycol:glycerol 30:40:30) at −20° C. […] Staining was quantified using software provided by the manufacturer (Zeiss AxioVision). GFAP and Mac1 staining was quantified in 3 different areas on each of 4 serial sections for each animal (n=3 or 4 for Mac1; n=7 or 9 for GFAP staining) The data was average area stained per section (as % total area) from DSP4-treated (n=3 for Mac1; n=7 for GFAP) and vehicle-treated (n=4 for Mac1; n=9 for GFAP) mice. […]

[1] = system: tyrosine hydroxylase (TH); assay: QPCR of tyrosine hydroxylase mRNA in DSP4-treated rats; type: in vivo, rat
Description: In this experiment, the effects of DSP4 on tyrosine hydroxylase (TH) and IkBα expression were analyzed. Adult rat Sprague Dawley rats were treated with the selective neurotoxin DSP4 to lesion locus ceruleus (LC) noradrenergic neurons and deplete cortical NA levels as described in Example 1.
RNA samples from control or DSP4-treated rats (n=4 each) were converted to cDNA and analyzed by QPCR for relative levels of tyrosine hydroxylase (TH) (FIG. 6A) in the locus ceruleus (LC).
Total cytoplasmic RNA from tissues was prepared from cells using TRIZOL reagent according to manufacturer procedures (Invitrogen/GIBCO); aliquots were converted to cDNA using random hexamer primers, and mRNA levels were estimated by quantitative touchdown PCR (QPCR). Conditions were 35 cycles of denaturation at 94° C. for 10 s; annealing at 58-64° C. for 15 s; and extension at 72° C. for 20 s on a Corbett Rotorgene Real-Time PCR unit (Corbett, Australia). The PCR mastermix contained SYBR Green (1 μl diluted 1:10,000 SybrGreen I 10,000× concentrate, Molecular Probes, Eugene, Oreg.). Relative mRNA concentrations were calculated from the takeoff point of reactions using manufacturer's software. Melting curve analysis and agarose gel electrophoresis were performed to ensure production of single and corrected size products. Relative mRNA values were normalized to housekeeping genes, either α-Tubulin (α-Tub), β-Actin (βAct) or glyceraldehyde-3-phosphate dehydrogenase (GDH). The primers used for QPCR (all listed 5′ to 3′) were: […]
After acclimation (7-10 days), rats received two intraperitoneal injections (one week apart) of either N-(2-chloroethyl)-N-ethyl-2 bromobenzylamine (DSP4, 5 mg/kg) dissolved in PBS or PBS alone (FIG. 6A). Four weeks after the second treatment, the animals were anesthetized with pentobarbital (50 mg/kg i.p.), and placed in a stereotaxic frame (Stoelting, USA) on a heating blanket. Body temperature was maintained at 37±0.5° C. for the time of surgery. […]

Compound: CCN(CCCl)Cc1ccccc1Br [DSP4, N-(2-chloroethyl)-N-ethyl-2-bromobenzylamine]
- loss of LC noradrenergic (TH positive) neurons (LC noradrenergic neurons): 70%
- levels of holoAPP (APP): no effect
- GFAP staining, frontal cortex (astrocyte marker GFAP; low levels of staining, not shown): little effect
- increase in GFAP staining, hippocampus (astrocyte marker GFAP; versus vehicle, significant): approximately 68%
- TH mRNA levels in the LC ([1]; DSP4-treated rats, n=4): 57 % versus control levels
- reduction in cortical TH mRNA levels ([1]; not statistically significant, P>0.05): 25%
- reduction of LC TH mRNA ([1]; versus control values, n=4): 43%

— patent US8580776B2, “Compositions and methods for treating neurodegenerating diseases” (The Board of Trustees of the University of Illinois, priority 2007, dated 2013)
